In US9683014B2, “Dipeptide mimetics of NGF and BDNF neurotrophins” (UCHREZHDENIE ROSSIISKOI AKADEMII MEDITSYNSKIKH NAUK …, priority 2009, dated 2017):
Numbered stars: 1 amine (or outer) side, 2 acyl side, 3 side chain; on linkers, the order of the positions; unused ones are H or OH. Square brackets hold non-standard residues; d marks the D form. Peptide text beside a SMILES is read from it. Suc = O=C(CCC(=O)[*:2])[*:1]; Ahx = NCCCCCC(=O)O

Columns and labels:
HT-22 cells [1] = test: Oxidative stress (H2O2) model in cultured HT-22 cells (MTT test); assay type: cell-based, mouse; details: for neuronal survival under oxidative stress: added 24 hours prior to the stress exposure, 10^−8 M to 10^−5 M; for Optical density (MTT): 24 h before H2O2
Procedure: To induce an oxidative stress, the cells were placed in a growth medium containing 5% FBS, then a freshly prepared H2O2 solution was added to a final concentration of 1.5 mM and incubated for 30 min at 37° C. and 5% CO2. Thereafter, the medium was replaced with a new one and the cells were cultured for 4 h under the same conditions.
The determination of cell viability was carried out by MTT test. […] At the end of an experiment the growth medium was replaced with an MTT solution (0.5 mg/ml) and incubated for 30 min at 37° C. and 5% CO2. The MTT solution was then removed from the wells and DMSO was added to dissolve the formazan precipitate. Then the optical density was measured using a Multiscan (Thermo) spectrophotometer at a wavelength of 600 nm.

Balb/c mice = test: Behavioral despair test according to Porsolt; assay type: in vivo, mouse
Procedure: In order to detect a potential antidepressant activity of the peptide BDNF mimetics, the behavioral despair test was used in the original version (Porsolt R. D., Anton G., Blavet N., Jalfre M. Behavioral despair in rats: a new model sensitive to antidepressants. European Journal of Pharmacology, 1978, 47, 379-391).
For these experiments, male Balb/c mice weighing 20-22 g were used. On day 1, the animals were placed in a narrow vessel filled with water at 22° C. for 10 min. 60 min later a test compound was administered intraperitoneally (GSB-106 at 1 mg/kg, GBK-108 and GBK-201 at 0.01, 0.1, 1.0, 10.0 mg/kg). 24 hours later the animals were placed again in the same conditions to record the retention time of the characteristic immobile posture (abandoning any active defensive and exploratory behavior) for a 5 min test period. Imipramine was administered 60 min prior to the 5 min test period (on day 2). The control groups were treated with distilled water. Each experimental group comprised at least 6 mice.

PC12 cells = test: Differentiation of PC12 cells and modulation of the differentiation-inducing activity of NGF; assay type: cell-based, rat; details: for distance of branching points of the longest processes from the cell body / length of the longest processes: peptide + NGF (GK-3 10^−6 M, GK-4 10^−7 M, GK-5 10^−6 M)
Procedure: (§1) The rat adrenal […] pheochromocytoma cell line PC12 was obtained from the Cell Culture Museum, RAN Institute of Molecular Genetics. The immortalized mouse hippocampal cell line HT-22 was a gift from Prof. F. Viegant, Utrecht University, the Netherlands.
At the time of plating, either NGF (100 ng/ml, positive control) or a test compound was added to a final concentration of 10^−5 to 10^−9 M in the growth medium. Thereafter, the test peptides and NGF were added to the medium every 24 hours in one series of experiments and every 48 hours in another series, for a total of 6 days. The extent of cell differentiation was estimated on the basis of the shape and size of the cells and the number and length of the processes.
NGF was used as a positive control at a final concentration of 100 ng/ml.

Hsp70 = test: Western blot of Hsp70 in HT-22 cells; assay type: cell-based, mouse; details: for amount of Hsp70: 24 h after addition, GK-1, GK-2 10^−8 and 10^−5 M, GK-3 10^−6 M, GK-4 10^−7 M, GK-5 10^−6 M
Procedure: (§2) The amount of Hsp70, Hsp32 and pTrkA was determined in the cytoplasmic fraction of HT-22 neuronal cells. For heat shock proteins, a test compound was added to the culture 24 hours prior to testing, before the cells were washed off the culture liquid with PBS. For pTrkA, a test compound was added to the culture immediately prior to the cell lysis just for 1 or 2 min, before the cells were washed off the culture liquid with PBS. Then the cells were mixed with the lysis buffer (50 mM Tris-HCl, 5 mM EDTA, 1 mM DTT, 1% Triton X-100, pH 7.5) at 4° C. and lysed for 5 min, then scraped off, transferred into a 1.5 ml centrifuge tube and centrifuged at 13000 rpm and 4° C. for 10 min. The supernatant containing cytosolic proteins was assayed by electrophoresis and immunoblotting. Proteins were separated on a 10% polyacrylamide gel (PAAG) and transferred from PAAG onto a PVDF membrane by electroelution for 45 min. Western blots were pre-incubated for 1 h in a TBST solution containing 1% Tween-20 and supplemented with 5% (w/v) skim milk. Western blots were then incubated with the primary polyclonal anti-Hsp32 antibody diluted 1:1000 or primary monoclonal anti-Hsp70 antibody diluted 1:1000 or primary monoclonal anti-phosphorylated tyrosine kinase A antibody diluted 1:1000 for 1 hour. Then the blots were washed and incubated with a secondary antibody conjugated to horseradish peroxidase (diluted 1:2000) for 1 hour. The detection of Hsp70, Hsp32 and pTrkA was carried out by the ECL reaction on a Kodak film.

Hsp32 = test: Western blot of Hsp32 in HT-22 cells; assay type: cell-based, mouse; details: for amount of Hsp32: 24 h after addition, GK-1, GK-2 10^−8 and 10^−5 M, GK-3 10^−6 M, GK-4 10^−7 M, GK-5 10^−6 M
Procedure: as §2

tyrosine kinase A (TrkA) = target: T1, tyrosine kinase A (TrkA) (Mus musculus, UniProt Q3UFB7); test: Tyrosine kinase A phosphorylation in HT-22 cells (Western blot); assay type: cell-based; details: first minute of exposure
T1 construct: phosphorylation of tyrosine kinase A in cultured hippocampal neuronal cell line HT22; endogenous in cells; host or cells: HT-22 hippocampal neuronal cell line
Procedure: as §2

HT-22 neuronal cell line = test: Viability of HT-22 neuronal cell line without damaging factors (MTT test); assay type: cell-based, mouse; details: FIG. 1.1, different molar concentrations
Procedure: as §1
The cells were grown in DMEM medium containing 5% FBS and 2 mM L-glutamine. The cells were incubated at 37° C. and 5% CO2. The growth medium was changed at 24 hours after inoculation and every 3 days thereafter. The cells were re-plated every week into culture flasks with a total area of 75 cm^2.
All types of cells were plated in DMEM medium.

PC12 cell line = test: Cellular model of Parkinson's disease (MPTP, MTT test); assay type: cell-based, rat; details: added 24 hours prior to MPTP 1 mM
Procedure: To produce a model for Parkinson's disease, MPTP was used at a final concentration of 1 mM (Shimoke K., Chiba H. Nerve growth factor prevents 1-methyl-[…]-1,2,3,6-tetrahydropyridine-induced cell death via the Akt pathway by suppressing caspase-3-like activity using PC12 cells: relevance to therapeutic application for Parkinson's disease. J. Neurosci. Res. 2001, 63, 402-409). MPTP was added to the cell growth medium containing 1% FBS at 24 hours after passage. The peptides were added to the cell growth medium concurrently with MPTP or 24 h before MPTP. Cell viability was determined at 24 h using an MTT test.

HT-22 cells [2] = details: added 24 hours prior to glutamate
Procedure: The determination of cell viability was carried out by MTT test. MTT is a water soluble tetrazolium salt of yellow color which readily permeates cells. In living cells, MTT is converted into water insoluble formazan crystals of violet color. At the end of an experiment the growth medium was replaced with an MTT solution (0.5 mg/ml) and incubated for 30 min at 37° C. and 5% CO2. The MTT solution was then removed from the wells and DMSO was added to dissolve the formazan precipitate. Then the optical density was measured using a Multiscan (Thermo) spectrophotometer at a wavelength of 600 nm.

[3] = GK-1 10^−5 M added 30 minutes before GK-2

T1 sequence (Q3UFB7 34-799): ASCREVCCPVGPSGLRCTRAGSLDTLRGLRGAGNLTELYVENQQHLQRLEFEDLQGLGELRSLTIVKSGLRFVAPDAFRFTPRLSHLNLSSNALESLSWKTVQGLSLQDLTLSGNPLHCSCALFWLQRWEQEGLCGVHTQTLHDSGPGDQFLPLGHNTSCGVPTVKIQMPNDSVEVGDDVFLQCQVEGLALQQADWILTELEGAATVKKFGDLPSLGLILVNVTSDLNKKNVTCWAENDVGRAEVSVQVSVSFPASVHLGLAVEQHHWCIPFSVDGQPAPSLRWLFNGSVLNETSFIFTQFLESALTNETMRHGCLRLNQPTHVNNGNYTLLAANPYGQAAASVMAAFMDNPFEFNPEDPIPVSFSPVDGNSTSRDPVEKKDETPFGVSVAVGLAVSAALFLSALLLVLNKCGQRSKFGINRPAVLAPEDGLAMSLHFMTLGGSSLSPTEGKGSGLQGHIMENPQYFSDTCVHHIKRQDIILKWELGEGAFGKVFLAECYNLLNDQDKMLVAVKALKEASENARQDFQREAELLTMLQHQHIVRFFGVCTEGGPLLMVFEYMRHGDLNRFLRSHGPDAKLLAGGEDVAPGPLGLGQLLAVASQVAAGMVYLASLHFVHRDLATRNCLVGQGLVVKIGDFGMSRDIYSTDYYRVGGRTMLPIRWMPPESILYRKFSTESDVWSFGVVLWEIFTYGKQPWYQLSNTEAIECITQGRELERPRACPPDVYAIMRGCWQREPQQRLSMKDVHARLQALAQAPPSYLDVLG

In the case of `CC(=O)N[C@@H](CC(=O)O)C(=O)N[C@@H](CO)C(N)=O` [GBK-108, N-acetyl-aspartyl-serine amide] (Ac-Asp-Ser-NH2), the “neuronal survival under oxidative stress” value (HT-22 cells [1]) is reported as “improved the neuronal survival” and the immobility time (Balb/c mice; GBK-108 at 10 mg/kg i.p., 24 h before the test) is reported as “increased the immobility time”.

`CSCC[C@H](NC(=O)[C@H](CC(=O)O)NC(C)=O)C(N)=O` [GBK-201, N-acetyl-aspartyl-methionine amide] (Ac-Asp-Met-NH2) was tested, and the immobility time (Balb/c mice; GBK-201 at 0.01 and 0.1 mg/kg i.p., 24 h before the test) was “increased the immobility time”.

In the case of `NCCCC[C@H](NC(=O)[C@H](CCC(=O)O)NC(=O)CCC(=O)O)C(N)=O` [GK-1, N-monosuccinyl-glutamyl-lysine amide] (Suc-Glu-Lys-NH2), the “decrease of the differentiation-promoting effect of NGF” value (PC12 cells; GK-1 10^−5 M, counting differentiated and undifferentiated cells) is reported as 50%, the “effect on the neuroprotective effect of GK-2” value (HT-22 cells [1]; [3]) is reported as “eliminated the neuroprotective effect of GK-2” and the “neuronal survival under oxidative stress” value (HT-22 cells [1]) is reported as “impaired the neuronal survival”. The “amount of Hsp70” value (Hsp70) was “no effect”, the “amount of Hsp70 induced by GK-2” value (Hsp70; [3]) was “no increase” and the “amount of Hsp32” value (Hsp32) was “no effect”. For the same compound, the “amount of Hsp32 induced by GK-2” value (Hsp32; [3]) was “no increase” and the “level of phosphorylated tyrosine kinase A” value (from here on “level”) (tyrosine kinase A (TrkA)) was “decreased”.

With `NCCCC[C@H](NC(=O)[C@H](CCC(=O)O)NC(=O)CCC(=O)O)C(=O)NCCCCNC(=O)[C@H](CCCCN)NC(=O)[C@H](CCC(=O)O)NC(=O)CCC(=O)O` [GK-2c, bis-(N-monosuccinyl-glutamyl-lysine)tetramethylenediamide] the “viability of HT-22 cells” value (HT-22 neuronal cell line) was “reduced the viability”.

For `CC(=O)N[C@@H](CCCCN)C(=O)N[C@@H](CCC(=O)O)C(N)=O` [GK-3, N-acetyl-lysyl-glutamic acid amide] (Ac-Lys-Glu-NH2), the “distance of branching points of the longest processes from the cell body” value (from here on “distance”) (PC12 cells) was 25 μm, the “length of the longest processes” value (PC12 cells) was “not significantly different” and the “Optical density (MTT)” value (HT-22 cells [1]; Table 1.6, 10^−5M, control 0.111 ± 0.009, H2O2 0.093 ± 0.004) was 0.109 ± 0.019. For the same compound, the “Optical density (MTT)” value (HT-22 cells [1]; Table 1.6, 10^−6M, control 0.111 ± 0.009, H2O2 0.093 ± 0.004) was 0.110 ± 0.014^, the “Optical density (MTT)” value (HT-22 cells [1]; Table 1.6, 10^−7M, control 0.111 ± 0.009, H2O2 0.093 ± 0.004) was 0.099 ± 0.014 and the “Optical density (MTT)” value (HT-22 cells [1]; Table 1.6, 10^−8M, control 0.111 ± 0.009, H2O2 0.093 ± 0.004) was 0.091 ± 0.014. For the same compound, the “neuronal survival under oxidative stress” value (HT-22 cells [1]) was “improved the neuronal survival”, the “protective effect against MPTP” value (PC12 cell line) was “protective effect” and the “amount of Hsp70” value (Hsp70) was “no effect on Hsp70”. For the same compound, the “amount of Hsp32” value (Hsp32) was “small increase” and the “level” value (tyrosine kinase A (TrkA)) was “increased”.

With `CC(=O)NC(CCCCN)C(=O)NC(CCC(=O)O)C(=O)NCCCCCCNC(=O)C(CCC(=O)O)NC(=O)C(CCCCN)NC(C)=O` (stereo not shown) [GK-4, bis-(N-acetyl-lysyl-glutamic acid) hexamethylenediamide] the “Max. length of cell processes, μm on day 6” value (“Max. length of cell processes” for short) (PC12 cells; 10^−6M + NGF 30 ng/ml) was 67 ± 4.5′ μm, the “Max. length of cell processes” value (PC12 cells; 10^−6M + NGF 50 ng/ml) was 73 ± 9.5′ μm and the “Max. length of cell processes” value (PC12 cells; 10^−6M + NGF 100 ng/ml) was 55 ± 11.3′ μm. For the same compound, the “Max. length of cell processes” value (PC12 cells; 10^−7M + NGF 30 ng/ml) was 52 ± 10.3′ μm, the “Max. length of cell processes” value (PC12 cells; 10^−7M + NGF 50 ng/ml) was 56 ± 13.2′ μm and the “Max. length of cell processes” value (PC12 cells; 10^−7M + NGF 100 ng/ml) was 65 ± 12.2′ μm. The “intercalary neurons in the differentiated cell population” value (PC12 cells; GK-4 10^−7 M + NGF) was 90%, the “distance” value (PC12 cells) was 20 μm and the “length of the longest processes” value (PC12 cells) was 65 μm. The “protective effect against MPTP” value (PC12 cell line) was “protective effect”, the “protective effect against glutamate cytotoxicity” value (HT-22 cells [2]) was “protective effect” and the “amount of Hsp70” value (Hsp70) was “significant increase”. The “amount of Hsp32” value (Hsp32) was “no effect on Hsp32”.

In the case of `NCCCCCC(=O)NCC(=O)N[C@@H](CCCCN)C(N)=O` [GK-5, N-(6-aminocaproyl)-glycyl-lysine amide] (H-[Ahx]-Gly-Lys-NH2), the “distance” value (PC12 cells) is reported as “not different”, the “length of the longest processes” value (PC12 cells) is reported as 55 μm and the “differentiation of PC-12 cells” value (PC12 cells; peptide alone, 10^−8 to 10^−5 M, NGF 100 ng/ml as positive control) is reported as “differentiation-promoting effect at 10^−6 M and 10^−5 M”. The “Optical density (MTT)” value (HT-22 cells [1]; Table 1.8, 10^−5M, control 0.097 ± 0.009, H2O2 0.056 ± 0.009) was 0.065 ± 0.008, the “Optical density (MTT)” value (HT-22 cells [1]; Table 1.8, 10^−6M, control 0.097 ± 0.009, H2O2 0.056 ± 0.009) was 0.066 ± 0.008^ and the “Optical density (MTT)” value (HT-22 cells [1]; Table 1.8, 10^−7M, control 0.097 ± 0.009, H2O2 0.056 ± 0.009) was 0.062 ± 0.009. For the same compound, the “Optical density (MTT)” value (HT-22 cells [1]; Table 1.8, 10^−8M, control 0.097 ± 0.009, H2O2 0.056 ± 0.009) was 0.058 ± 0.007, the “neuronal survival under oxidative stress” value (HT-22 cells [1]) was “improved the neuronal survival” and the “protective effect against MPTP” value (PC12 cell line) was “inactive”. The “amount of Hsp70” value (Hsp70) was “no effect on Hsp70”, the “amount of Hsp32” value (Hsp32) was “increase in the synthesis of Hsp32” and the “level” value (tyrosine kinase A (TrkA)) was “increased”.

For `NCCCC[C@H](NC(=O)[C@H](CO)NC(=O)CCC(=O)O)C(=O)NCCCCCCNC(=O)[C@H](CCCCN)NC(=O)[C@H](CO)NC(=O)CCC(=O)O` [GSB-106, bis-(N-monosuccinyl-seryl-lysine) hexamethylenediamide], the “neuronal survival under oxidative stress” value (HT-22 cells [1]) was “improved the neuronal survival”, the “protective effect against glutamate cytotoxicity” value (HT-22 cells [2]) was “protective effect” and the immobility time (Balb/c mice; GSB-106 1 mg/kg i.p., 24 h before the test) was “reducing the immobility time”.

In the case of `CN(C)CCCN1c2ccccc2CCc2ccccc21` [imipramine, Imipramine, reference compound], the immobility time (Balb/c mice; imipramine 60 min prior to the 5 min test) is reported as “reducing the immobility time”.
